Measured values published in ChEMBL document CHEMBL3046257, “Response of sweet maize (Zea mays L.) hybrids to halosulfuron” (Crop Prot, 2008).

Tests used:
Zea mays [1] = assay: Toxicity in Zea mays (maize) assessed as plant height relative to untreated control; assay type: organism-based; conditions: in vivo
Zea mays [2] = assay: Toxicity in Zea mays (maize) assessed as reduction in cob size relative to untreated control; assay type: organism-based; design: scale not given: the % may be the effect or the level left; conditions: in vivo

Row | Compound | Activity (Zea mays [1]) [%] | Activity (Zea mays [2]) [%]
1 | COc1cc(OC)nc(NC(=O)NS(=O)(=O)c2ncccc2C(=O)N(C)C)n1 [NICOSULFURON] | 100 | –
2 | COC(=O)c1sccc1S(=O)(=O)NC(=O)Nc1nc(C)nc(OC)n1 [THIFENSULFURON-METHYL] | – | 9
3 | COc1nc(C)nc(NC(=O)NS(=O)(=O)c2ccccc2CCC(F)(F)F)n1 [PROSULFURON] | 100 | –
4 | CC(C)N1C(=O)c2ccccc2NS1(=O)=O [BENTAZON] | 100 | –
5 | O=C(O)c1nc(Cl)ccc1Cl [CLOPYRALID] | – | 67
